# Data as given in article PMC11050599, “Novel Tetracyclic Azaphenothiazines with the Quinoline Ring as New Anticancer and Antibacterial Derivatives of Chlorpromazine” (International Journal of Molecular Sciences, 2024).
# Tests used:
# [1] = tested on: A549 (lung cancer); experiment: MTT assay, A549 cells; type: cell-based, human; conditions: Homo sapiens, A549; MTT, 72 h, mean SD; read-out: IC50 A549
# Description: (§1) The human cell lines, such as A549 (lung cancer), MDA-MB-231 (breast cancer), MiaPaca-2 (pancreatic cancer), PC3 (metastatic prostate cancer), HCT-116 (colon carcinoma), and HaCaT (immortalized keratinocytes), were sourced from the American Type Culture Collection (ATCC) in Rockville, USA. Culturing conditions varied as follows: HCT116 cells were cultured in MEM (ThermoSci, Waltham, MA, USA), A549, MDA-MB-231, MiaPaca, HaCaT cells in DMEM High Glucose and PC3 cells were cultured in RPMI (Biowest SAS, Nuaillé, France). The growth medium consisted of 10% fetal bovine serum (FBS, Sigma-Aldrich, St. Louis, MO, USA), 20 mM HEPES (Biowest, Nuaillé, France), and antibiotics (100 U/mL of penicillin and 100 μg/mL of streptomycin) from Gibco, Grand Island, NY, USA. […] These compounds were added to 96-well plates containing study cells (1 × 10^4 cells per well) and incubated for 72 h. […] Cell absorbance results were incorporated into the formula for calculating the relative MTT level (%), enabling the assessment of cell viability following exposure to the test compounds. The cell viability percentage represents the MTT reduction in cells treated with the test compounds compared to the control sample, where only the medium was added to the cells.
# [2] = tested on: MDA-MB-231 (breast cancer); experiment: MTT assay, MDA-MB-231 cells; type: cell-based, human; conditions: for IC50: Homo sapiens, MDA-MB-231, MTT, 72 h, MDA-MB231, read-out: IC50 MDA; for SI MDA: SI = IC50 for normal cell line (HaCaT)/IC50 cancer cell line
# Description: as §1
# [3] = tested on: HaCaT (immortalized human keratinocytes); experiment: MTT assay, HaCaT normal cells; type: cell-based; conditions: Homo sapiens, HaCaT; MTT, 72 h, normal cells; read-out: IC50 HaCaT (Table 3)
# Description: as §1
# [4] = tested on: MiaPaCa-2 (pancreas cancer); experiment: MTT assay, MiaPaCa-2 cells; type: cell-based, human; conditions: for IC50: Homo sapiens, MIA PaCa-2, MTT, 72 h, read-out: IC50 MiaPaCa-2
# Description: as §1
# [5] = tested on: PC3 (prostate cancer); experiment: MTT assay, PC3 cells; type: cell-based, human; conditions: for IC50: Homo sapiens, PC-3, MTT, 72 h, read-out: IC50 PC3; for SI PC3: SI = IC50 for normal cell line (HaCaT)/IC50 cancer cell line
# Description: as §1
# [6] = tested on: HCT116 (colon cancer); experiment: MTT assay, HCT116 cells; type: cell-based, human; conditions: for IC50: Homo sapiens, HCT-116, MTT, 72 h, read-out: IC50 HCT116
# Description: as §1
# [7] = tested on: E. coli ATCC 25922; experiment: MIC broth microdilution; type: cell-based; conditions: Escherichia coli, ATCC25922; 19 h, 35 °C; read-out: MIC E. coli ATCC 25922
# Description: (§2) To evaluate the antibacterial effectiveness of chloroquinobenzothiazine derivatives, various bacterial strains from international microbe collections such as the American Type Culture Collection (ATCC) and the National Collection of Type Culture (NCTC) were examined, alongside a panel of clinical rods. This included two Gram-negative organisms, E. coli ATCC 25922 and P. aeruginosa ATCC 15442, and a series of six Gram-positive strains: S. aureus NCTC 4163; S. aureus ATCC 29213, 25923, and 6538; and S. epidermidis ATCC 12228 and 35984. […] The MIC was determined using the two-fold serial broth microdilution method in 96-well microtitration plates containing Mueller-Hinton II broth medium (Becton Dickinson, Franklin Lakes, NJ, USA). The final inoculum for all tested bacteria was adjusted to […] (colony-forming units per milliliter). The stock solution of the tested compounds was prepared in dimethyl sulfoxide (DMSO) and diluted to a maximum of 1% solvent content with a sterile medium.
# [8] = tested on: P. aeruginosa ATCC 15442; experiment: MIC broth microdilution; type: cell-based; conditions: Pseudomonas aeruginosa, ATCC15442; 19 h, 35 °C; read-out: MIC P. aeruginosa ATCC 15442
# Description: as §2
# [9] = tested on: S. aureus ATCC 25923; experiment: MIC broth microdilution; type: cell-based; conditions: Staphylococcus aureus, ATCC25923; 19 h, 35 °C; read-out: MIC S. aureus ATCC 25923
# Description: as §2
# [10] = tested on: S. aureus ATCC 29213; experiment: MIC broth microdilution; type: cell-based; conditions: Staphylococcus aureus, ATCC29213; 19 h, 35 °C; read-out: MIC S. aureus ATCC 29213
# Description: as §2
# [11] = tested on: S. aureus ATCC 6538; experiment: MIC broth microdilution; type: cell-based; conditions: Staphylococcus aureus, ATCC6538; 19 h, 35 °C; read-out: MIC S. aureus ATCC 6538
# Description: as §2
# [12] = tested on: S. aureus NCTC 4163; experiment: MIC broth microdilution; type: cell-based; conditions: Staphylococcus aureus, NCTC4163; 19 h, 35 °C; read-out: MIC S. aureus NCTC 4163
# Description: as §2
# [13] = tested on: S. epidermidis ATCC 12228; experiment: MIC broth microdilution; type: cell-based; conditions: Staphylococcus epidermidis, ATCC12228; 19 h, 35 °C; read-out: MIC S. epidermidis ATCC 12228
# Description: as §2
# [14] = tested on: S. epidermidis ATCC 35984; experiment: MIC broth microdilution; type: cell-based; conditions: Staphylococcus epidermidis, ATCC35984; 19 h, 35 °C; read-out: MIC S. epidermidis ATCC 35984
# Description: as §2
# [15] = tested on: A549 cells; experiment: Annexin V-FITC/PI apoptosis flow cytometry, A549; type: cell-based, human
# Description: (§3) To analyze the number of cells in early apoptosis, late apoptosis, or necrosis, A549, MiaPaca-2, and HCT-116 cell lines were cultured in 6-well plates with a seeding density of 1 × 10^5 cells per well. These cells were then treated with selected compounds (4, 5, and 8) at their respective IC50 concentrations and incubated for 72 h. Subsequently, a commercially available kit, the FITC: Annexin V Apoptosis Detection Kit I from BD Biosciences Pharmingen in San Jose, CA, USA, was utilized to assess apoptosis. After 72 h the cells were harvested, washed, and labeled with Annexin V-FITC and propidium iodide (PI) following the manufacturer’s protocol (Becton Dickinson), as previously described. The stained cells were analyzed by flow cytometry. The cells were identified as early apoptotic (Annexin V+/PI−) or late apoptotic/necrotic (Annexin V+/PI+).
# [16] = tested on: HCT116 cells; experiment: Annexin V-FITC/PI apoptosis flow cytometry, HCT116; type: cell-based, human
# Description: as §3
# [17] = tested on: HCT116 cells; experiment: Cell cycle analysis by flow cytometry, HCT116; type: cell-based, human; conditions: IC50, 24 h, compared to the control
# Description: In brief, cells were seeded at a density of 1 × 10^5 cells/well on a six-well plate and allowed to adhere for 24 h. […] Both population cells (the attached and detached) were collected and centrifuged at 400× g for 5 min at 4 °C. After centrifugation, the cells were washed twice with 0.9% NaCl and subsequently fixed in 500 μL of 70 % cold ethanol overnight.
# Before analysis, the fixed cells underwent another centrifugation step at 850× g for 5 min at 4 °C and were washed with PBS. Following the washes, the cells were incubated with 50 μL of RNase (100 μg/mL) and 200 μL of propidium iodide (PI) (50 μg/mL) at 37 °C for 30 min in the dark. Finally, 100 μL of PBS was added to each sample. Flow cytometry (Becton Dickinson FACS Verse, Franklin Lakes, NJ, USA) was then used to analyze the cell cycle distribution, identifying cells in various stages including sub-G1, G0/G1, S, and G2/M phases. Each assay was performed in quadruplicate.
# [18] = tested on: cancer cell lines; experiment: MTT assay, summary over several cell lines; type: cell-based, human; conditions: A549 and MDA-MB-231 versus HaCaT
# Description: as §1
# [19] = SI = IC50 for normal cell line (HaCaT)/IC50 cancer cell line
# [20] = representative dot plot, Figure 4A, IC50, 72 h
# [21] = representative dot plot, Figure 4C, IC50, 72 h
structure (smiles),measurement,setting,value
"CN(C)CCCN1c2cc(Cl)ccc2Sc2cc3ccccc3nc21 [Compound 8, 3-(8-Chloroquino[3,2-b]benzo[1,4]thiazin-6-yl)-N,N-dimethylpropan-1-amine]",IC50,[1],8.2 ± 3.6 µM
same,IC50,[2],52.1 ± 2.7 µM
same,SI MDA,[2],1.2
same,IC50,[3],62.3 ± 2.5 µM
same,IC50,[4],40.2 ± 0.7 µM
same,SI MiaPaCa-2,[4]; [19],1.6
same,IC50,[5],52.1 ± 7.1 µM
same,SI PC3,[5],1.2
same,IC50,[6],1600 ± 800 nM
same,MIC,[7],64 µg/mL
same,MIC,[8],256 µg/mL
same,MIC,[9],8 µg/mL
same,MIC,[10],8 µg/mL
same,MIC,[11],8 µg/mL
same,MIC,[12],8 µg/mL
same,MIC,[13],8 µg/mL
same,MIC,[14],8 µg/mL
same,"cells in late apoptosis or necrosis, A549","[15]; compound at IC50, 72 h",42%
same,A549: Alive,[15]; [20],62.41%
same,A549: Early Apoptotic,[15]; [20],2.39%
same,A549: Necrotic,[15]; [20],24.93%
same,A549: Necrotic/Late Apoptotic,[15]; [20],10.27%
same,"cells in early apoptosis, HCT116","[16]; compound at IC50, 72 h",9.09 ± 0.5%
same,"cells in late apoptosis/necrosis, HCT116","[16]; compound at IC50, 72 h",8.55 ± 0.33%
same,HCT-116: Alive,[16]; [21],78.75%
same,HCT-116: Early Apoptotic,[16]; [21],9.09%
same,HCT-116: Necrotic,[16]; [21],3.61%
same,HCT-116: Necrotic/Late Apoptotic,[16]; [21],8.55%
same,"increase in the cell amount at the sub-G1 phase, HCT116",[17],5 fold
same,"increase in the number of cells in the G2/M phase, HCT116",[17],approximately 1.3 fold
same,"increase in the number of cells in the S phase, HCT116",[17],approximately 2 fold
"COc1cccc2c1C(=O)c1c(O)c3c(c(O)c1C2=O)C[C@@](O)(C(=O)CO)C[C@@H]3O[C@H]1C[C@H](N)[C@H](O)[C@H](C)O1 [DX, doxorubicin, reference compound]",IC50,[1],0.6 ± 0.2 µM
same,IC50,[2],0.8 ± 0.1 µM
same,SI MDA,[2],0.15
same,IC50,[3],0.3 ± 0.1 µM
same,IC50,[4],0.6 ± 0.2 µM
same,IC50,[5],0.8 ± 0.1 µM
same,SI PC3,[5],0.15
same,IC50,[6],590 ± 20 nM
same,SI HCT116,[6]; [19],0.5
same,selectivity index (SI) range,[18],0.14–0.15
